Here are results for 84 compounds from a flash point compilation (Sun et al. 2020).

Counter-ions that a name gives are not always drawn.

For the compound `CCCCN(CC)C(=O)SCCC` [S-propyl N-butyl-N-ethylcarbamothioate], the flash point was determined as 51.00 °C.
Consider `CCSCc1ccccc1OC(=O)NC` [[2-(ethylsulfanylmethyl)phenyl] N-methylcarbamate], for which the flash point is 123.00 °C.
As to `NCc1cccc(CN)c1` [[3-(aminomethyl)phenyl]methanamine], the flash point came to 117.00 °C.
With `COC(=O)Nc1cccc(OC(=O)Nc2cccc(C)c2)c1` [[3-(methoxycarbonylamino)phenyl] N-(3-methylphenyl)carbamate], the flash point was determined as 74.00 °C.
For the compound `OCC1CCC(CO)CC1.OCC1CCC(CO)CC1` (centres undefined) [[4-(hydroxymethyl)cyclohexyl]methanol], the flash point is 166.00 °C.
`Br/C=C/c1ccccc1` [[(E)-2-bromoethenyl]benzene] returned a flash point of 79.00 °C.
As for `CCC[CH2][Sn]([CH2]CCC)([O]C(C)=O)[O]C(C)=O` [[acetyloxy(dibutyl)stannyl] acetate], the flash point turned out to be 143.00 °C.
The compound `CCCCCCCCCCCC(=O)[O][Sn]([CH2]CCC)([CH2]CCC)[O]C(=O)CCCCCCCCCCC` [[dibutyl(dodecanoyloxy)stannyl] dodecanoate] gave a flash point of 235.00 °C.
`C1=Cc2cccc3cccc1c23` [acenaphthylene] yielded a flash point of 122.00 °C.
For the compound `CC=O` [acetaldehyde], the flash point was -40.00 °C.
`CC(=O)O` [acetic acid] yielded a flash point of 40.00 °C.
For the compound `CC(=O)OCN=[N+](C)[O-]` [acetyloxymethylimino-methyl-oxidoazanium], the flash point was 99.00 °C.
To `Cl.Nc1ccccc1` [aniline;hydrochloride] belongs 193.00 °C; to `O=C1c2ccccc2C(=O)c2ccccc21` [anthracene-9,10-dione], 185.00 °C; to `c1ccc2cc3ccccc3cc2c1` [anthracene], 121.00 °C.
Turning to `Cc1ccc([N+](=O)[O-])cc1.N.Nc1cccc([N+](=O)[O-])c1.Nc1ccccc1[N+](=O)[O-]` [azane;1-methyl-4-nitrobenzene;2-nitroaniline;3-nitroaniline], the flash point came out at 154.00 °C.
Regarding `O=C1CCCCCN1` [azepan-2-one], the flash point came out at 125.00 °C.
As for `C1CCCNCC1` [azepane], the flash point was 37.00 °C.
For the compound `Nc1ccccc1N` [benzene-1,2-diamine], the flash point was determined as 156.00 °C.
In the case of `Oc1ccccc1O` [benzene-1,2-diol], the flash point came to 127.00 °C.
As for `Nc1cccc(N)c1` [benzene-1,3-diamine], the figure is 138.00 °C; as for `O=C(Cl)c1cccc(C(=O)Cl)c1` [benzene-1,3-dicarbonyl chloride], 180.00 °C.
`O=S(=O)(O)c1ccccc1` [benzenesulfonic acid]: the flash point is 113.00 °C.
In turn, `O=C(O)c1ccccc1` [benzoic acid] yielded a flash point of 121.00 °C.
With `O=C(OOC(=O)c1ccccc1)c1ccccc1` [benzoyl benzenecarboperoxoate], the flash point was 80.00 °C.
On to `O=C(Cl)c1ccccc1` [benzoyl chloride], for which the flash point is 72.00 °C.
In turn, `O=C(OCc1ccccc1)c1ccccc1O` [benzyl 2-hydroxybenzoate] gave a flash point of 180.00 °C.
The compound `O=C(Cl)OCc1ccccc1` [benzyl carbonochloridate] had a flash point of 108.00 °C.
`c1ccc(Cc2ccccc2)cc1` [benzylbenzene]: the flash point worked out at 130.00 °C.
In turn, `C1=CC2C=CC1C2` [bicyclo[2.2.1]hepta-2,5-diene] gave a flash point of -21.00 °C.
As to `CCCCC(CC)COC(=O)/C=C\C(=O)OCC(CC)CCCC` (centres undefined) [bis(2-ethylhexyl) (Z)-but-2-enedioate], the flash point was found to be 185.00 °C.
For the compound `CCCCC(CC)COC(=O)c1ccccc1C(=O)OCC(CC)CCCC` (centres undefined) [bis(2-ethylhexyl) benzene-1,2-dicarboxylate], the flash point is 207.00 °C.
Compound `CCCCC(CC)COP(=O)(O)OCC(CC)CCCC` (centres undefined) [bis(2-ethylhexyl) hydrogen phosphate] came in with a flash point of 196.00 °C.
As for `COCCOC(=O)c1ccccc1C(=O)OCCOC` [bis(2-methoxyethyl) benzene-1,2-dicarboxylate], the figure is 210.00 °C; as for `CC(C)COC(=O)c1ccccc1C(=O)OCC(C)C` [bis(2-methylpropyl) benzene-1,2-dicarboxylate], 196.00 °C.
Regarding `CC(C)CCCCCOC(=O)CCCCC(=O)OCCCCCC(C)C` [bis(6-methylheptyl) hexanedioate], the flash point turned out to be 210.00 °C.
To `O=C(OCC1CO1)C1CCCCC1C(=O)OCC1CO1` (centres undefined) [bis(oxiran-2-ylmethyl) cyclohexane-1,2-dicarboxylate] belongs 190.00 °C; to `C=CCOC(=O)c1ccccc1C(=O)OCC=C` [bis(prop-2-enyl) benzene-1,2-dicarboxylate], 110.00 °C; to `Brc1ccccc1` [bromobenzene], 51.00 °C.
Consider `OCC#CCO` [but-2-yne-1,4-diol], for which the flash point was found to be 128.00 °C.
To `CCCCO.[Ti]` [butan-1-ol;titanium] belongs 77.00 °C; to `CCCC[O-].CCCC[O-].CCCC[O-].CCCC[O-].[Ti+4]` [butan-1-olate;titanium(4+)], 77.00 °C; to `CCCC=O` [butanal], -7.00 °C.
On to `CC(O)CCO` (centres undefined) [butane-1,3-diol], for which the flash point amounted to 121.00 °C.
Compound `CC(O)C(C)O` (centres undefined) [butane-2,3-diol] registered a flash point of 85.00 °C.
As for `CCC(C)S` (centres undefined) [butane-2-thiol], the flash point is -23.00 °C.
As for `CCCC` [butane], the flash point was -60.00 °C.
For `CCCC#N` [butanenitrile], the flash point worked out at 17.00 °C.
As for `CCCC(=O)O` [butanoic acid], the flash point came to 77.00 °C.
On to `CCCC(=O)OC(=O)CCC` [butanoyl butanoate], for which the flash point is 82.00 °C.
`C=C(C)C(=O)OCCCC` [butyl 2-methylprop-2-enoate] registered a flash point of 52.00 °C.
With `CCCCOC(=O)c1ccc(O)cc1` [butyl 4-hydroxybenzoate], the flash point was 181.00 °C.
To `CCCCOC(=O)[C@@H](C)Oc1ccc(Oc2ccc(C#N)cc2F)cc1` [butyl (2R)-2-[4-(4-cyano-2-fluorophenoxy)phenoxy]propanoate] belongs 122.00 °C; to `CCCCOC(=O)CCC` [butyl butanoate], 53.00 °C.
Consider `CCCCCCCCCCCCCCCCCC(=O)OCCCC` [butyl octadecanoate], for which the flash point came out at 160.00 °C.
To `CCCC[Si](Cl)(Cl)Cl` [butyl(trichloro)silane] belongs 52.00 °C; to `CCC[CH2][Sn]([Cl])([Cl])[Cl]` [butyl(trichloro)stannane], 81.00 °C.
For the compound `C[CH2][Al]([Cl])[CH2]C.C[CH2][Al]([Cl])[Cl]` [chloro(diethyl)alumane;dichloro(ethyl)alumane], the flash point is -20.00 °C.
Regarding `C[CH2][Al]([Cl])[CH2]C` [chloro(diethyl)alumane], the flash point was -23.00 °C.
`Clc1ccccc1` [chlorobenzene]: the flash point is 24.00 °C.
In turn, `CCCCCCCCCCCCCCCCCC(=O)[O-].[Cl-].[Cl-].[Cl-].[Cl-].[Cr+3].[Cr+3].[OH-]` [chromium(3+);octadecanoate;tetrachloride;hydroxide] yielded a flash point of 2.00 °C.
Compound `C1CCCCCC1` [cycloheptane] came in with a flash point of 6.00 °C.
`O=CC1CC=CCC1` (centres undefined) [cyclohex-3-ene-1-carbaldehyde] showed a flash point of 57.00 °C.
Compound `NC1CCCCC1` [cyclohexanamine] gave a flash point of 31.00 °C.
To `OC1CCCCC1` [cyclohexanol] belongs 68.00 °C; to `CC(=O)OC1CCCCC1` [cyclohexyl acetate], 58.00 °C; to `[C-]1=CC=CC1.[C-]1=CC=CC1.[Ni+2]` [cyclopenta-1,3-diene;nickel(2+)], 4.00 °C.
As to `C1=CCC=C1.C1=CCC=C1.[Ni]` [cyclopenta-1,3-diene;nickel], the flash point was 4.00 °C.
`OC1CCCC1` [cyclopentanol] showed a flash point of 51.00 °C.
`O=C1CCCC1` [cyclopentanone] registered a flash point of 30.00 °C.
In turn, `C1=CCCC1` [cyclopentene] came in with a flash point of -34.00 °C.
Turning to `CCCCCCCCCC` [decane], the flash point is 46.00 °C.
For the compound `C=CC(=O)OCCCCCCCCCC` [decyl prop-2-enoate], the flash point was 127.00 °C.
In turn, `CCCCOC(=O)CCC(=O)OCCCC` [dibutyl butanedioate] showed a flash point of 135.00 °C.
On to `CC[Si](Cl)(Cl)CC` [dichloro(diethyl)silane], for which the flash point amounted to 24.00 °C.
As for `ClC(Cl)c1ccccc1` [dichloromethylbenzene], the figure is 92.00 °C; as for `O=C(OC1CCCCC1)c1ccccc1C(=O)OC1CCCCC1` [dicyclohexyl benzene-1,2-dicarboxylate], 207.00 °C.
Compound `CCOC(=O)/C=C/C(=O)OCC` [diethyl (E)-but-2-enedioate] yielded a flash point of 104.00 °C.
`CCOC(=O)c1ccccc1C(=O)OCC` [diethyl benzene-1,2-dicarboxylate] had a flash point of 140.00 °C.
As for `CCOC(=O)CCC(=O)OCC` [diethyl butanedioate], the figure is 90.00 °C.
Regarding `CCOC(=O)OCC` [diethyl carbonate], the flash point is 25.00 °C.
As for `CCOC(=O)C(=O)OCC` [diethyl oxalate], the figure is 76.00 °C; as for `CCOS(=O)(=O)OCC` [diethyl sulfate], 104.00 °C; as for `CCCCCCCOC(=O)c1ccccc1C(=O)OCCCCCCC` [diheptyl benzene-1,2-dicarboxylate], 224.00 °C.
